System: 873145-292-R-J1-PDC complex spheroid viability
Assay: Anticancer human tumor 873145-292-R-J1-PDC patient-derived renal clear cell carcinoma cell line growth inhibition [POLQ]
Details: for IC50: curve of first compound; for viability, T/C: stronger effect = lower value
Summary of the method: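 Patient-derived tumour cells were co-cultured with HUVEC and mesenchymal stem cells as multicellular spheroids at 37 °C. They were treated with POLQ inhibitors (novobiocin, ART-558, RP6685) alone or combined with other agents. Top concentrations were at or near clinical Cmax (otherwise 10 microM; SN-38 at 1 microM), decreasing in half-log steps.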

[1] = second compound 0.0316 µM, first compound 0.00316 µM
[2] = second compound 0.0316 µM, first compound 0.01 µM
[3] = second compound 0.0316 µM, first compound 0.0316 µM
[4] = second compound 0.0316 µM, first compound 0.1 µM
[5] = second compound 0.0316 µM, first compound 0.316 µM
[6] = second compound 0.0316 µM, first compound 1 µM
[7] = second compound 0.1 µM, first compound 0.00316 µM
[8] = second compound 0.1 µM, first compound 0.01 µM
[9] = second compound 0.1 µM, first compound 0.0316 µM
[10] = second compound 0.1 µM, first compound 0.1 µM
[11] = second compound 0.1 µM, first compound 0.316 µM
[12] = second compound 0.1 µM, first compound 1 µM
[13] = second compound 0.316 µM, first compound 0.00316 µM
[14] = second compound 0.316 µM, first compound 0.01 µM
[15] = second compound 0.316 µM, first compound 0.0316 µM
[16] = second compound 0.316 µM, first compound 0.1 µM
[17] = second compound 0.316 µM, first compound 0.316 µM
[18] = second compound 0.316 µM, first compound 1 µM
[19] = second compound 1 µM, first compound 0.00316 µM
[20] = second compound 1 µM, first compound 0.01 µM
[21] = second compound 1 µM, first compound 0.0316 µM
[22] = second compound 1 µM, first compound 0.1 µM
[23] = second compound 1 µM, first compound 0.316 µM
[24] = second compound 1 µM, first compound 1 µM
[25] = second compound 3.16 µM, first compound 0.00316 µM
[26] = second compound 3.16 µM, first compound 0.01 µM
[27] = second compound 3.16 µM, first compound 0.0316 µM
[28] = second compound 3.16 µM, first compound 0.1 µM
[29] = second compound 3.16 µM, first compound 0.316 µM
[30] = second compound 3.16 µM, first compound 1 µM
[31] = second compound 10 µM, first compound 0.00316 µM
[32] = second compound 10 µM, first compound 0.01 µM
[33] = second compound 10 µM, first compound 0.0316 µM
[34] = second compound 10 µM, first compound 0.1 µM
[35] = second compound 10 µM, first compound 0.316 µM
[36] = second compound 10 µM, first compound 1 µM
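Note: spheroids exposed to compounds for 7 days before viability readout.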
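Throughout, for viability, T/C: luminescence signal used as surrogate for viable cell content; 100% = DMSO vehicle control viability.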

Work on `C=CCn1c(=O)c2cnc(Nc3ccc(N4CCN(C)CC4)cc3)nc2n1-c1cccc(C(C)(C)O)n1` + COC1C(OC(N)=O)C(O)C(Oc2ccc3c(O)c(NC(=O)c4ccc(O)c(CC=C(C)C)c4)c(=O)oc3c2C)OC1(C)C yielded an IC50 (second compound 0.0316 µM) greater than 1000 nM, an IC50 (second compound 0.1 µM) greater than 1000 nM and an IC50 (second compound 0.316 µM) greater than 1000 nM. It also gave an IC50 (second compound 1 µM) greater than 1000 nM, an IC50 (second compound 3.16 µM) greater than 1000 nM and an IC50 (second compound 10 µM) greater than 1000 nM. The viability, T/C [1] was 98.9%, the viability, T/C [2] was 109% and the viability, T/C [3] was 89.8%. The viability, T/C [4] was 85.5%, the viability, T/C [5] was 90.7% and the viability, T/C [6] was 70.1%. For the same molecule, the viability, T/C [7] was 102%, the viability, T/C [8] was 97.6% and the viability, T/C [9] was 100%. For the same molecule, the viability, T/C [10] was 95.5%, the viability, T/C [11] was 84.9% and the viability, T/C [12] was 69.9%. The viability, T/C [13] was 100%, the viability, T/C [14] was 109% and the viability, T/C [15] was 96%. The viability, T/C [16] was 97.7%, the viability, T/C [17] was 83.5% and the viability, T/C [18] was 74.5%. The viability, T/C [19] was 98.8%, the viability, T/C [20] was 96% and the viability, T/C [21] was 99.6%. The viability, T/C [22] was 83.2%, the viability, T/C [23] was 94.6% and the viability, T/C [24] was 63.1%. The viability, T/C [25] was 100%, the viability, T/C [26] was 98.8% and the viability, T/C [27] was 89.5%. It also gave a viability, T/C [28] of 89.5%, a viability, T/C [29] of 88.3% and a viability, T/C [30] of 75.7%. The viability, T/C [31] was 100%, the viability, T/C [32] was 92.1% and the viability, T/C [33] was 101%. It also gave a viability, T/C [34] of 96.8%, a viability, T/C [35] of 76.5% and a viability, T/C [36] of 72%.
For `CCc1c2c(nc3ccc(O)cc13)-c1cc3c(c(=O)n1C2)COC(=O)[C@]3(O)CC` + COC1C(OC(N)=O)C(O)C(Oc2ccc3c(O)c(NC(=O)c4ccc(O)c(CC=C(C)C)c4)c(=O)oc3c2C)OC1(C)C, the IC50 (second compound 0.0316 µM) was 78.8 nM, the IC50 (second compound 0.1 µM) was 63.7 nM and the IC50 (second compound 0.316 µM) was 67.8 nM. The IC50 (second compound 1 µM) was 50.4 nM, the IC50 (second compound 3.16 µM) was 59.8 nM and the IC50 (second compound 10 µM) was 82.9 nM. The viability, T/C [1] was 108%, the viability, T/C [2] was 86.7% and the viability, T/C [3] was 58.6%. For the same molecule, the viability, T/C [4] was 47.1%, the viability, T/C [5] was 40.6% and the viability, T/C [6] was 28.6%. It also gave a viability, T/C [7] of 96.4%, a viability, T/C [8] of 92.1% and a viability, T/C [9] of 53.7%. It also gave a viability, T/C [10] of 48.4%, a viability, T/C [11] of 36.7% and a viability, T/C [12] of 26.9%. For the same molecule, the viability, T/C [13] was 103%, the viability, T/C [14] was 83% and the viability, T/C [15] was 59.2%. For the same molecule, the viability, T/C [16] was 43.2%, the viability, T/C [17] was 39.7% and the viability, T/C [18] was 28.6%. It also gave a viability, T/C [19] of 104%, a viability, T/C [20] of 87.2% and a viability, T/C [21] of 58.1%. It also gave a viability, T/C [22] of 36.6%, a viability, T/C [23] of 39.4% and a viability, T/C [24] of 28.7%. For the same molecule, the viability, T/C [25] was 99.8%, the viability, T/C [26] was 77.1% and the viability, T/C [27] was 57%. The viability, T/C [28] was 42.2%, the viability, T/C [29] was 37.6% and the viability, T/C [30] was 27.2%. For the same molecule, the viability, T/C [31] was 99.7%, the viability, T/C [32] was 75.4% and the viability, T/C [33] was 53.4%. For the same molecule, the viability, T/C [34] was 55.4%, the viability, T/C [35] was 39.2% and the viability, T/C [36] was 26.2%.
Molecule `CNCc1ccc(-c2[nH]c3cc(F)cc4c3c2CCNC4=O)cc1` + COC1C(OC(N)=O)C(O)C(Oc2ccc3c(O)c(NC(=O)c4ccc(O)c(CC=C(C)C)c4)c(=O)oc3c2C)OC1(C)C has an IC50 (second compound 0.0316 µM) greater than 10000 nM, an IC50 (second compound 0.1 µM) greater than 10000 nM and an IC50 (second compound 0.316 µM) greater than 10000 nM. For the same molecule, the IC50 (second compound 1 µM) was greater than 10000 nM, the IC50 (second compound 3.16 µM) was greater than 10000 nM and the IC50 (second compound 10 µM) was greater than 10000 nM. It also gave a viability, T/C [3] of 106%, a viability, T/C [4] of 96.8% and a viability, T/C [5] of 102%. For the same molecule, the viability, T/C [6] was 96.7%, the viability, T/C (second compound 0.0316 µM, first compound 3.16 µM) was 90.7% and the viability, T/C (second compound 0.0316 µM, first compound 10 µM) was 91.6%. The viability, T/C [9] was 97%, the viability, T/C [10] was 97.8% and the viability, T/C [11] was 88%. The viability, T/C [12] was 95.6%, the viability, T/C (second compound 0.1 µM, first compound 3.16 µM) was 88% and the viability, T/C (second compound 0.1 µM, first compound 10 µM) was 98.3%. The viability, T/C [15] was 94.9%, the viability, T/C [16] was 89.4% and the viability, T/C [17] was 95.8%. For the same molecule, the viability, T/C [18] was 89.2%, the viability, T/C (second compound 0.316 µM, first compound 3.16 µM) was 96.1% and the viability, T/C (second compound 0.316 µM, first compound 10 µM) was 104%. The viability, T/C [21] was 90.4%, the viability, T/C [22] was 98.5% and the viability, T/C [23] was 118%. It also gave a viability, T/C [24] of 86.7%, a viability, T/C (second compound 1 µM, first compound 3.16 µM) of 95.7% and a viability, T/C (second compound 1 µM, first compound 10 µM) of 102%. For the same molecule, the viability, T/C [27] was 99.5%, the viability, T/C [28] was 95.8% and the viability, T/C [29] was 98.4%. For the same molecule, the viability, T/C [30] was 92.2%, the viability, T/C (second compound 3.16 µM, first compound 3.16 µM) was 98.1% and the viability, T/C (second compound 3.16 µM, first compound 10 µM) was 96.1%. It also gave a viability, T/C [33] of 98.5%, a viability, T/C [34] of 101% and a viability, T/C [35] of 92.4%. It also gave a viability, T/C [36] of 94.7%, a viability, T/C (second compound 10 µM, first compound 3.16 µM) of 98.5% and a viability, T/C (second compound 10 µM, first compound 10 µM) of 102%.
